From article PMC6500982 (Cancer Science, 2019) come the findings set out here.

This data set in a line: Pharmacokinetics of plasma tirabrutinib, Cycle 1 Day 1 and Day 28. It is filed as in vivo, human.

On to `CC#CC(=O)N1CC[C@@H](n2c(=O)n(-c3ccc(Oc4ccccc4)cc3)c3c(N)ncnc32)C1` [tirabrutinib], for which, where the note is “160 mg QD to 300 mg BID”, the Pharmacokinetics linearity result is listed as “linear”. For the same molecule, where the note is “160 to 480 mg QD”, the “Increase in Cmax and AUC with dose” value is given as “increased in a dose‐dependent manner”. For the same molecule, where the note is “C1D28”, the “Arithmetic mean trough plasma concentration, 300 mg BID vs 480 mg QD” value worked out at 3.2 fold. For the same molecule, the “Accumulation following multiple doses” value (Day 28 vs Day 1) is “little accumulation”.
